Results reported in patent US11654136B2, “Phosphoinositide 3-kinase inhibitor with a zinc binding moiety” (Curis, Inc., priority 2011, dated 2023).

Tests used:
[1] = system: OPM2 (multiple myeloma tumor cell line) xenograft tumors; assay: OPM2 xenograft tumor model; assay type: in vivo, nude mice; conditions: oral 50 mg/kg twice a day, five days per week
Protocol: SU-DHL4 (diffuse large B-cell lymphoma cell line), H2122 (human NSCLC cell line), Daudi (non-Hodgkin's lymphoma cell line), and OPM2 (multiple myeloma tumor cell line) cells were implanted into either nude or Scid (severe […] immune-deficient) mice. […]. […] The control groups were treated with vehicle using the same dosing schedule as the corresponding active group.
In another study, the Daudi tumor group was dosed at 50 mg/Kg twice a day for five days per week. […] The SU-DHL4 tumor group was dosed at 100 mg/Kg orally or 50 mg/Kg intravenously.
Tumors were measured during the study period with an electronic caliper, and body weights were measured twice a week. The following formula was used to calculate the tumor volume: […] Percentage of tumor volume change was used to describe compound activity over the treatment period.

[2] = system: MM1S human MM xenograft; assay: Combination with lenalidomide in the MM1S xenograft model; assay type: in vivo, SCID/Beige mice; conditions: 75 mg/Kg PO Qd (Mon-Fri); 17 days; single agent
Protocol: Female SCID/Beige mice at age 4 weeks were housed in ventilated micro-isolator cages (INNOCAGE®IVC, Innovive Inc., San Diego, Calif.) in a controlled climate, fed with sterile high-fat diet (Problab-RMH 2000) ad libitum and provided with sterilized water. All housing and supplies for SCID/Beige mice were sterilized by autoclaving before use. Mice were inspected daily including weekends/holidays by trained animal facility personnel and investigators. All animal procedures were performed under sterile conditions within a biosafety cabinet (for injections) or laminar flow hood (for animal husbandry and non-invasive procedures).
Cryopreserved MM1S human MM cells were thawed in a 37° C. water bath and cultured in RPMI medium plus 10% Fetal Bovine Serum (FBS) in a tissue culture incubator at 5% CO2. […] The implanted mice were monitored for general health and tumor development daily.
Tumors were detectable about two weeks following implantation. Tumor size was measured with a caliper. […]
During each animal study, tumors were measured with calipers, tumor size determined using the above mentioned formula, and tumor size changes in percentage calculated. Mouse body weights were measured with a scale twice per week. […] T/C values were calculated using the following formula: % T/C=100×ΔT/ΔC if ΔT>0. […]

[3] = system: T and B lymphocytes; assay: Effect on circulating and lymphoid organ lymphocytes; assay type: in vivo, CD1 wild type mice; conditions: 100 mg/kg orally for five consecutive days
Protocol: Another 5 mice were treated with vehicle. Blood was collected at various time points (including pre-dosing, during dosing and post-dosing) from the mandibular vein. Blood was analyzed with a flow cytometer for T and B cell quantification.
The animals were sacrificed, and the lymphoid organs were collected. Cells were physically dissociated from the tissues and analyzed with a flow cytometer. Anti-CD3 and -CD19 antibodies were used to stain T and B cells, respectively.

COc1ccc(-c2nc(N3CCOCC3)c3sc(CN(C)c4ncc(C(=O)NO)cn4)cc3n2)cn1 [Compound 1, N-hydroxy-2-(((2-(6-methoxypyridin-3-yl)-4-morpholinothieno[3,2-d]pyrimidin-6-yl)methyl)(methyl)amino)pyrimidine-5-carboxamide]
Tumor growth [1]: efficacious | Tumor growth [2]: more effective than Lenalidomide at either 12.5 or 25 mg/Kg PO as single agents | Blood levels of T and B lymphocytes ([3]; blood): significant reversible reduction in the blood levels of both T and B lymphocytes | T and B lymphocyte levels in spleen and lymph nodes ([3]; spleen and lymph nodes): significant reduction in both T and B lymphocytes
